# Assay results as given in US11434242B2, “Dopamine-b-hydroxylase inhibitors” (BIAL-PORTELA & Cª, S.A., priority 2017, dated 2022).
# Marks after values point to notes of the source that are not given here.
# Molecular target: T1, Dopamine beta hydroxylase (Homo sapiens, UniProt P09172)
# T1 construct: 125 μl of plasma; tissue Instituto Português do Sangue Transplantação; host or cells: human plasma from healthy donors
# T1 sequence (P09172 40-617 limits assumed): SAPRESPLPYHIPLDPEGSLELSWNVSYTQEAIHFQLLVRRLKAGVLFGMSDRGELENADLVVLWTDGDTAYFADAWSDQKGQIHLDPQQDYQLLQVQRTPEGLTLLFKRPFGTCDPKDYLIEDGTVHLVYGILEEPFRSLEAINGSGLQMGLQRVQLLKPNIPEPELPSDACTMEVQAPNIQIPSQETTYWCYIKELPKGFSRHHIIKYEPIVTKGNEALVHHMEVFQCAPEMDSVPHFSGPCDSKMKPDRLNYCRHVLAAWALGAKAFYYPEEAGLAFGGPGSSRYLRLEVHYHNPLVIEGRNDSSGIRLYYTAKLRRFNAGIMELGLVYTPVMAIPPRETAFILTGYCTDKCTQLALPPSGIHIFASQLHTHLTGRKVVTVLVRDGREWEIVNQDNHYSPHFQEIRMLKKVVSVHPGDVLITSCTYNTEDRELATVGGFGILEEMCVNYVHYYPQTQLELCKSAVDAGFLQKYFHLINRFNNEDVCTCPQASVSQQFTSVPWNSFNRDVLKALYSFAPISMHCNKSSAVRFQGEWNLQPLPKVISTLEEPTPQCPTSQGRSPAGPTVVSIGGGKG
# Assay: Dopamine beta hydroxylase activity in human plasma
# Format: biochemical
# Conditions: for Plasma (0.01 μM), activity in % of control / Plasma (0.01 μM), activity in % of control, re-test (asterisked): inhibitor 0.01 μM; for Plasma (0.1 μM), activity in % of control / Plasma (0.1 μM), activity in % of control, re-test (asterisked): inhibitor 0.1 μM; for Plasma (0.01 μM), activity in % of control, re-test (asterisked) / Plasma (0.1 μM), activity in % of control, re-test (asterisked): re-tested under the same experimental conditions, asterisked data believed to be correct
# Summary of the method: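 Healthy-donor human plasma pre-incubated 10 min at 37° C with compound at final 10, 100 or 1000 nM in pH 5.0 acetate buffer with ascorbate, fumarate, pargyline, N-ethylmaleimide, catalase and copper sulfate. Tyramine substrate then added for 45 min; octopamine formed was isolated by SCX cartridge, periodate-converted and read at 330 nm; activity given as % control.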
Compound,"Plasma (0.01 μM), activity in % of control","Plasma (0.1 μM), activity in % of control","Plasma (0.01 μM), activity in % of control, re-test (asterisked)","Plasma (0.1 μM), activity in % of control, re-test (asterisked)"
"Cn1c(CC(=O)N2CCCCC2)c2n(c1=S)C[C@@]1(c3cc(Cl)ccc3F)C[C@@H]21 [Example 311, 2-((5aS,6aR)-5a-(5-chloro-2-fluorophenyl)-2-methyl-3-thioxo-2,3,5,5a,6,6a-hexahydrocyclopropa[3,4]pyrrolo[1,2-c]imidazol-1-yl)-1-(piperidin-1-yl)ethan-1-one]",87.2 % of control,21.6 % of control,,
"Cn1c(CC(=O)N2CCCCC2)c2n(c1=S)C[C@@]1(c3cc(Br)ccc3F)C[C@@H]21 [Example 312, 2-((5aS,6aR)-5a-(5-bromo-2-fluorophenyl)-2-methyl-3-thioxo-2,3,5,5a,6,6a-hexahydrocyclopropa[3,4]pyrrolo[1,2-c]imidazol-1-yl)-1-(piperidin-1-yl)ethan-1-one]",84.8 % of control,51.7 % of control,67.6* % of control,15.0* % of control
"Cn1c(CC(=O)NC2CCOCC2)c2n(c1=S)C[C@@]1(c3cc(Cl)ccc3F)C[C@@H]21 [Example 313, 2-((5aS,6aR)-5a-(5-chloro-2-fluorophenyl)-2-methyl-3-thioxo-2,3,5,5a,6,6a-hexahydrocyclopropa[3,4]pyrrolo[1,2-c]imidazol-1-yl)-N-(tetrahydro-2H-pyran-4-yl)acetamide]",37.6 % of control,9.6 % of control,,
"Cn1c(CC(=O)NC2CCOCC2)c2n(c1=S)C[C@@]1(c3cc(Br)ccc3F)C[C@@H]21 [Example 314, 2-((5aS,6aR)-5a-(5-bromo-2-fluorophenyl)-2-methyl-3-thioxo-2,3,5,5a,6,6a-hexahydrocyclopropa[3,4]pyrrolo[1,2-c]imidazol-1-yl)-N-(tetrahydro-2H-pyran-4-yl)acetamide]",80.2 % of control,34.8 % of control,41.9* % of control,1.4* % of control
"Cn1c(CC(=O)NCC(F)(F)F)c2n(c1=S)C[C@@H](c1c(F)c(F)cc(F)c1F)C2 [Example 315, (R)-2-(2-methyl-6-(2,3,5,6-tetrafluorophenyl)-3-thioxo-2,5,6,7-tetrahydro-3H-pyrrolo[1,2-c]imidazol-1-yl)-N-(2,2,2-trifluoroethyl)acetamide]",67.0 % of control,17.0 % of control,94.0* % of control,53.3* % of control
"Cn1c(CC(=O)Nc2ncco2)c2n(c1=S)C[C@@H](c1c(F)c(F)cc(F)c1F)C2 [Example 316, (R)-2-(2-methyl-3-thioxo-6-(2,3,5,6-tetrafluorophenyl)-2,5,6,7-tetrahydro-3H-pyrrolo[1,2-c]imidazol-1-yl)-N-(oxazol-2-yl)acetamide]",43.4 % of control,4.5 % of control,73.1* % of control,16.6* % of control
"Cn1c(CC(=O)Nc2ncco2)c2n(c1=S)C[C@H](c1c(F)ccc(Cl)c1F)C2 [Example 317, (S)-2-(6-(3-chloro-2,6-difluorophenyl)-2-methyl-3-thioxo-2,5,6,7-tetrahydro-3H-pyrrolo[1,2-c]imidazol-1-yl)-N-(oxazol-2-yl)acetamide]",45.6 % of control,5.3 % of control,,
